Measurements from PubChem BioAssay AID330 (DTP/NCI, 2004).
Several values for one entry are separate records, joined by “and”; a condition that tells them apart may be missing. Equal values may be shown once. Toxic doses and inconclusive results are not listed. The calls were made as follows: active = survival T/C of 150% or more; inactive = T/C below 125% in these data.

System: P388 leukemia ip, CD2F1 mice, survival T/C
Assay: NCI In Vivo Anticancer Drug Screen. Data for tumor model P388 Leukemia (intraperitoneal) in CD2F1 (CDF1) mice
Conditions: endpoint: median survival time, higher = longer survival
Procedure, shortened: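 Mice carrying the transplanted tumor received test compound or vehicle. Survival was recorded in each group, and the value is the treated-group measurement divided by that of the vehicle-treated control group.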

[1] = dose: 50.0 mg/kg/injection, schedule: Q01DX005 (ip), vehicle: saline with Tween-80
[2] = dose: 100.0 mg/kg/injection, schedule: Q01DX005 (ip), vehicle: saline with Tween-80
[3] = dose: 200.0 mg/kg/injection, schedule: Q01DX005 (ip), vehicle: saline with Tween-80
[4] = dose: 60.0 mg/kg/injection, schedule: Q01DX005 (ip), vehicle: saline with Tween-80
[5] = dose: 120.0 mg/kg/injection, schedule: Q01DX005 (ip), vehicle: saline with Tween-80
[6] = dose: 240.0 mg/kg/injection, schedule: Q01DX005 (ip), vehicle: saline with Tween-80
[7] = dose: 60.0 mg/kg/injection, schedule: Q01DX005 (ip), vehicle: saline
[8] = dose: 120.0 mg/kg/injection, schedule: Q01DX005 (ip), vehicle: saline
[9] = dose: 240.0 mg/kg/injection, schedule: Q01DX005 (ip), vehicle: saline
[10] = dose: 50.0 mg/kg/injection, schedule: Q01DX009 (ip), vehicle: saline with Tween-80
[11] = dose: 100.0 mg/kg/injection, schedule: Q01DX009 (ip), vehicle: saline with Tween-80
[12] = dose: 200.0 mg/kg/injection, schedule: Q01DX009 (ip), vehicle: saline with Tween-80
[13] = dose: 12.5 mg/kg/injection, schedule: Q01DX009 (ip), vehicle: saline with Tween-80
[14] = dose: 25.0 mg/kg/injection, schedule: Q01DX009 (ip), vehicle: saline with Tween-80
[15] = dose: 50.0 mg/kg/injection, schedule: Q01DX005 (ip), vehicle: Klucel (hydroxypropylcellulose) (HPC)
[16] = dose: 100.0 mg/kg/injection, schedule: Q01DX005 (ip), vehicle: Klucel (hydroxypropylcellulose) (HPC)
[17] = dose: 200.0 mg/kg/injection, schedule: Q01DX005 (ip), vehicle: Klucel (hydroxypropylcellulose) (HPC)
[18] = dose: 50.0 mg/kg/injection, schedule: Q01DX009 (ip), vehicle: saline
[19] = dose: 100.0 mg/kg/injection, schedule: Q01DX009 (ip), vehicle: saline
[20] = dose: 200.0 mg/kg/injection, schedule: Q01DX009 (ip), vehicle: saline
[21] = dose: 100.0 mg/kg/injection, schedule: Q01DX001 (ip), vehicle: saline with Tween-80
[22] = dose: 200.0 mg/kg/injection, schedule: Q01DX001 (ip), vehicle: saline with Tween-80
[23] = dose: 100.0 mg/kg/injection, schedule: Q04DX003 (ip), vehicle: saline
[24] = dose: 200.0 mg/kg/injection, schedule: Q04DX003 (ip), vehicle: saline

Measured: T/C

[CH3][Sn]([CH3])([Cl])[CH2]CC[CH2][Sn]([Cl])([Cl])[Cl]
inactive: dose: 6.25 mg/kg/injection, schedule: Q01DX009 (ip), vehicle: saline 110 % of control | dose: 12.5 mg/kg/injection, schedule: Q01DX009 (ip), vehicle: saline 99 % of control

N#Cc1c(NC(=O)C(Cl)(Cl)Cl)sc2c1CCCC2
inactive: [1] 105 % of control | [2] 110 % of control | [3] 117 % of control

Cn1c(C(Cl)Cl)nc2ccccc2c1=O
inactive: dose: 12.5 mg/kg/injection, schedule: Q04DX003 (ip), vehicle: Klucel (hydroxypropylcellulose) (HPC) 95 % of control | dose: 25.0 mg/kg/injection, schedule: Q04DX003 (ip), vehicle: Klucel (hydroxypropylcellulose) (HPC) 104 % of control | dose: 50.0 mg/kg/injection, schedule: Q04DX003 (ip), vehicle: Klucel (hydroxypropylcellulose) (HPC) 104 % of control

O=c1c(Cc2ccc(Cl)cc2)coc2ccccc12
inactive: [4] 94 % of control | [5] 94 % of control | [6] 101 % of control

Nc1c2c(=O)[nH]c(=O)c2c(N)c2c(=O)c3ccccc3c(=O)c12
inactive: [7] 103 % of control | [8] 104 % of control | [9] 105 % of control

O=C(O)C1CCCCC1Cc1ccccc1 (stereo not given)
inactive: [10] 109 % of control | [11] 98 % of control | [12] 93 % of control

O=C(Nc1cccnc1)c1ccccc1
inactive: dose: 6.25 mg/kg/injection, schedule: Q01DX009 (ip), vehicle: saline with Tween-80 100 % of control | [13] 100 % of control | [14] 100 % of control

CC1=N/C(=C\c2cccc(Br)c2)C(=O)O1
inactive: [15] 98 % of control | [16] 98 % of control | [17] 98 % of control

COC(=O)C1(C(C)C(=O)c2ccccc2)NC(=S)NC(=O)C1C#N (stereo not given)
inactive: [7] 88 % of control | [8] 98 % of control | [9] 100 % of control

CC(=O)CCC(=O)[O][Bi]([c]1ccccc1)[c]1ccccc1
inactive: [15] 110 % of control | [16] 114 % of control | [17] 114 % of control

Nc1ccc2c(c1)CC1CC(=O)NN=C21 (stereo not given)
inactive: [7] 98 % of control | [8] 92 % of control | [9] 98 % of control

CC(=O)C(C)P(=O)(O)O (stereo not given)
inactive: [18] 99 % of control | [19] 101 % of control | [20] 106 % of control

CCOC(=O)Nc1cc(NC/C(=N/O)c2ccc([N+](=O)[O-])cc2)c([N+](=O)[O-])c(N)n1
inactive: dose: 50.0 mg/kg/injection, schedule: Q01DX001 (ip), vehicle: saline with Tween-80 92 % of control | [21] 92 % of control | [22] 89 % of control

O=C1OCC2=Nc3cccc4cccc(c34)N12
inactive: [15] 101 % of control | [16] 94 % of control | [17] 98 % of control

Cc1ccc(S(=O)(=O)/N=[Se](\C)c2ccccc2)cc1 (stereo not given)
inactive: dose: 0.79 mg/kg/injection, schedule: Q01DX009 (ip), vehicle: saline 95 % of control | dose: 1.56 mg/kg/injection, schedule: Q01DX009 (ip), vehicle: saline 97 % of control | dose: 3.12 mg/kg/injection, schedule: Q01DX009 (ip), vehicle: saline 93 % of control and 97 % of control | [13] 96 % of control | [14] 96 % of control | [10] 108 % of control | [18] 114 % of control

CC1(C)SC(=O)C(=O)S1
inactive: [23] 103 % of control | [24] 93 % of control

CCOC(=O)c1cnc2c(C)ccc(C)c2c1Nc1ccc2c(c1)OCO2
inactive: dose: 60.0 mg/kg/injection, schedule: Q01DX005 (ip), vehicle: Klucel + Tween-80 92 % of control | dose: 120.0 mg/kg/injection, schedule: Q01DX005 (ip), vehicle: Klucel + Tween-80 90 % of control | dose: 240.0 mg/kg/injection, schedule: Q01DX005 (ip), vehicle: Klucel + Tween-80 91 % of control

C[N+]12OC3CCC(O)CC1CCCC2C3 (stereo not given)
inactive: dose: 100.0 mg/kg/injection, schedule: Q01DX001 (ip), vehicle: water 100 % of control

CN(C)CCCNC(=O)c1ccc2c(c1)C(=O)c1ccccc1C2=O
inactive: dose: 100.0 mg/kg/injection, schedule: Q04DX003 (ip), vehicle: water 107 % of control | dose: 200.0 mg/kg/injection, schedule: Q04DX003 (ip), vehicle: water 115 % of control

CCOc1n[n+]([O-])c(Cl)cc1[N+](=O)[O-]
inactive: [14] 103 % of control | [10] 102 % of control | [11] 100 % of control

Cn1cc2c(c1-c1ccccc1)[n+](=O)c1ccccc1n2[O-]
inactive: [1] 94 % of control | [2] 91 % of control | [3] 95 % of control

O=C1C(c2ccccc2)=C(c2ccc(Br)cc2)C2(c3ccc(Br)cc3)CC12c1ccccc1 (stereo not given)
inactive: dose: 50.0 mg/kg/injection, schedule: Q01DX005 (ip), vehicle: Klucel + Tween-80 91 % of control | dose: 100.0 mg/kg/injection, schedule: Q01DX005 (ip), vehicle: Klucel + Tween-80 88 % of control

C[C@]12CCC(=O)C=C1CC[C@@H]1[C@@H]2[C@@H](O)C[C@@]2(C)[C@H]1CC[C@]2(O)C(=O)COC(=O)c1ccc([N+](=O)[O-])cc1Cl
inactive: [10] 109 % of control | [11] 100 % of control | [12] 109 % of control and 86 % of control | dose: 400.0 mg/kg/injection, schedule: Q01DX009 (ip), vehicle: saline with Tween-80 86 % of control

N/C(=N\OC(=O)Nc1ccc(Cl)c(Cl)c1)c1ccccc1
inactive: [18] 101 % of control | [19] 104 % of control | [20] 100 % of control

COc1cc2c(c(C3(O)C(=O)N(C)c4ccccc43)c1OC)OCO2 (stereo not given)
inactive: [4] 101 % of control | [5] 98 % of control | [6] 98 % of control

O=C(O)C(Cc1ccc(C(=O)C(F)(F)F)cc1)NC(=O)C(F)(F)F (stereo not given)
inactive: dose: 100.0 mg/kg/injection, schedule: Q04DX003 (ip), vehicle: saline with Tween-80 100 % of control | dose: 200.0 mg/kg/injection, schedule: Q04DX003 (ip), vehicle: saline with Tween-80 103 % of control | dose: 400.0 mg/kg/injection, schedule: Q04DX003 (ip), vehicle: saline with Tween-80 99 % of control

C=CCOC(OCC=C)C(OCC=C)OCC=C
inactive: [19] 109 % of control | [23] 100 % of control | [20] 100 % of control | [24] 100 % of control | dose: 400.0 mg/kg/injection, schedule: Q01DX009 (ip), vehicle: saline 122 % of control | dose: 400.0 mg/kg/injection, schedule: Q04DX003 (ip), vehicle: saline 100 % of control

CCCCCCCC1C(=O)OC2CC3C(C)=CC(=O)C(O)C3(C)C3C4(O)OCC23C1C(C)C4O (stereo not given)
inactive: dose: 1.25 mg/kg/injection, schedule: Q01DX005 (ip), vehicle: Klucel (hydroxypropylcellulose) (HPC) 107 % of control | dose: 2.5 mg/kg/injection, schedule: Q01DX005 (ip), vehicle: Klucel (hydroxypropylcellulose) (HPC) 108 % of control | dose: 5.0 mg/kg/injection, schedule: Q01DX005 (ip), vehicle: Klucel (hydroxypropylcellulose) (HPC) 107 % of control and 116 % of control | dose: 10.0 mg/kg/injection, schedule: Q01DX005 (ip), vehicle: Klucel (hydroxypropylcellulose) (HPC) 117 % of control and 124 % of control

CC(=O)[O][Sn]([CH2]c1ccccc1)([CH2]c1ccccc1)[CH2]c1ccccc1
inactive: dose: 0.75 mg/kg/injection, schedule: Q01DX009 (ip), vehicle: saline 115 % of control | dose: 1.5 mg/kg/injection, schedule: Q01DX009 (ip), vehicle: saline 87 % of control | dose: 3.0 mg/kg/injection, schedule: Q01DX009 (ip), vehicle: saline 105 % of control | dose: 6.0 mg/kg/injection, schedule: Q01DX009 (ip), vehicle: saline 108 % of control

COc1cc(N=Nc2ccc(N)nc2N)c(OC)cc1N=Nc1ccc([N+](=O)[O-])cc1
inactive: [1] 115 % of control | [2] 107 % of control | [3] 107 % of control

Cc1nn(C(=S)S)c(C)c1N=Nc1cc(Cl)ccc1Cl
inactive: [1] 100 % of control | [2] 95 % of control | [3] 95 % of control

COC1=C(C)C(=O)c2c(c(/C=N/NC(N)=S)c(Cl)n2C)C1=O
inactive: [21] 103 % of control | [22] 93 % of control | dose: 400.0 mg/kg/injection, schedule: Q01DX001 (ip), vehicle: saline with Tween-80 96 % of control
